Experimental data as given in US20230012172A1, “COMPOSITIONS AND METHODS FOR TREATMENT OF PLATINUM-BASED CHEMOTHERAPEUTIC RESISTANT TUMORS” (The George Washington University, priority 2020, published 2023).

Experiments:
SKOV3 CR cells = assay: Cell viability assay (SRB) in SKOV3 CR cells; assay type: cell-based; conditions: for synergistic effects with cisplatin (combination index): SKOV3 CR cells
Protocol: Cell culture and resistance cell line establishment. IGROV1 cells, U2OS (HTB-96; ATCC), HEK293T (CRL-11268; ATCC) and SKOV3 cells (HTB-77; ATCC) were cultured at 37° C. in DMEM with 10% Fetal Bovine Serum (FBS). PEO1 (10032308; Sigma-Aldrich), PEO4 (10032309; Sigma-Aldrich), PEO14 (10032311; […] Sigma-Aldrich) were cultured at 37° C. in RPMI-1640 with 10% FBS. OV90 (CRL-11732; […] All the cells were cultured at in a humidified incubator with 5% CO2 atmosphere. Cisplatin resistant cell lines, including SKOV3 CR, IGROV1 CR and OV90 CR, were generated using an approach similar to that reported in Zhou et al., (2018) Oncogene 37, 3981-3997, the disclosure of which is incorporated herein in its entirety. Cell viability assay. Cells were seeded at 3,000 cells/well in 96-well plates were treated with drugs, followed by incubation for 48 hours, after which cell viability was detected using Sulforhodamine B (SRB) assay (64). Absorbance at 510 nm was detected using a SpectraMax Reader (Molecular Devices) and analyzed with SoftMax Analysis Software (Molecular Devices). Combinational index (CI) values were calculated using CompuSyn software.

SENP1 [1] = biological target: T1, SENP1 (Homo sapiens, UniProt Q9P0U3); assay: In vitro deSUMOylation assay with recombinant His-JAK2 and GST-SENP1; assay type: biochemical; design: made in house; host or cells: E. coli BL21 (DE3) for pET28a-JAK2; conditions: SUMOylated His-JAK2 incubated with GST-SENP1 and compound for 3 hours
T1 sequence (Q9P0U3 1-644): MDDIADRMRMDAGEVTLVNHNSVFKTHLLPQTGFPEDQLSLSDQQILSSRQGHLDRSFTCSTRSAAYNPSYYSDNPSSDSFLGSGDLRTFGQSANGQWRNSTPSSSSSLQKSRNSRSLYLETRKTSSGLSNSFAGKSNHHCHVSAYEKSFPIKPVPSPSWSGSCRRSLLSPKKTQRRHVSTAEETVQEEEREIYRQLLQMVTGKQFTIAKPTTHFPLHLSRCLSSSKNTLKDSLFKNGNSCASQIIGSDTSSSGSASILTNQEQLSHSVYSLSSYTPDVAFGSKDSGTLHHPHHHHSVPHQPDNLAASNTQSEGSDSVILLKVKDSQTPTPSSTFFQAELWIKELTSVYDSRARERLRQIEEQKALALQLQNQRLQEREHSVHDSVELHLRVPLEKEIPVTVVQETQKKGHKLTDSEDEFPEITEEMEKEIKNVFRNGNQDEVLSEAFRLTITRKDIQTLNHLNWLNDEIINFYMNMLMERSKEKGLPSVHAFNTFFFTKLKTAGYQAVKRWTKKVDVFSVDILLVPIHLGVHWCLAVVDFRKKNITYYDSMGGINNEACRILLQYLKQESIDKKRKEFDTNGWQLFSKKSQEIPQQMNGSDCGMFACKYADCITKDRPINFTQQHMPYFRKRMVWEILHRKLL
Protocol: To further determine whether SENP1 can directly deSUMOylate JAK2, in vitro deSUMOylation assays were performed by using purified recombinant His-JAK2 and GST-SENP1 proteins.
In vitro SUMOylation assay. The SUMOylation reactions were performed according to the manufacture's instruction (BML-UW8955-0001; ENZO). Briefly, 200 nM of purified HIS-JAK2 was suspended in reaction buffer (20 μl) containing Mg-ATP, SUMO E1, SUMO E2 and recombinant SUMOs. RanGAP1 (provided in the kit) was used as the substrate for positive control. The reaction was incubated at 37° C. for 60 minutes and terminated by using 20 μl of SDS loading buffer. […] The reactions were then subjected to Western blot to evaluate SUMOylation level.
Protein expression and purification. pET28a-JAK2 and its mutant was transformed in BL21 (DE3) E. coli cells by heat shot method at 42° C. and grown in Luria Broth (LB) at 37° C. E. coli cells were induced with 0.5 mM IPTG to induct protein expression. Cells were harvested by centrifugation at 5,000 g, 4° C. for 15 min and the pellet was resuspended in lysis buffer (20 mM Tris pH 7.9, 500 mM NaCl, 5 mM imidazole, 2 mM DTT and 1× protease inhibitor cocktail). Cells were then sonicated and centrifuged at 14,000 g, 4° C. for 15 min. 1 ml of Ni-NTA was added to the supernatant and incubated at 4° C. with end-to-end mixing for 2 hours and subjected to a column. The Ni-NTA resin was washed with 10 ml wash buffer (20 mM Tris pH 7.9, 250 mM NaCl, 15 mM Imidazole and 0.5 mM DTT) and eluted with 1 ml elution buffer (20 mM Tris pH 7.9, 250 mM NaCl and 1 M imidazole). The elute was then concentrated by using a protein concentrator (Thermo Scientific™ Pierce™) and resuspend in dialysis buffer (50 mM Tris pH 7.9, 50 mM NaCl, 2 mM DTT, and 10% glycerol). The purified protein was stored at −80° C. pGEX-4T1-SENP1 and its mutant were purified using following buffers: lysis buffer (1 mM DTT, and lx protease inhibitor cocktail, 800 mM NaCl, 5 mM EDTA, 50 mM Tris-pH8.0, 0.1% Triton x-100), wash buffer (800 mM NaCl, 5 mM EDTA, 50 mM Tris-pH8.0, 0.1% Triton x-100), elution buffer (40 mM glutathione, 800 mM NaCl, 5 mM EDTA, 50 mM Tris-pH8.0, 0.1% Triton x-100), dialysis buffer (50 mM Tris pH 7.9, 50 mM NaCl, 2 mM DTT, and 10% glycerol).

SENP1 [2] = assay: SENP1 protein and JAK2 SUMOylation in IGROV1 cells treated with cisplatin (Western blot); assay type: cell-based, human; conditions: time and dose dependent
Protocol: (§1) The SENP1 protein level was increased while JAK2 SUMOylation was decreased correspondingly in IGROV1 cells treated with cisplatin in a time and dose dependent manner (FIGS. 4F and 4G). To further test the SENP1 induction by platinum drugs in vivo, SENP1 protein levels were measured in IGROV1 xenograft tumors using immunohistochemistry (IHC) in implanted immunodeficient nude mice that were treated with carboplatin at 20 mg/kg or 60 mg/kg after tumor was developed.

IGROV1 CR cells = assay: Cell viability assay (SRB) in IGROV1 CR cells; assay type: cell-based, human; conditions: for toxicity (cell viability): 150 nM, IGROVI CR cells
Protocol: Cell culture and resistance cell line establishment. IGROV1 cells, U2OS (HTB-96; ATCC), HEK293T (CRL-11268; ATCC) and SKOV3 cells (HTB-77; ATCC) were cultured at 37° C. in DMEM with 10% Fetal Bovine Serum (FBS). PEO1 (10032308; Sigma-Aldrich), PEO4 (10032309; Sigma-Aldrich), PEO14 (10032311; Sigma-Aldrich) and PE023 cells (10032313; Sigma-Aldrich) were cultured at 37° C. in RPMI-1640 with 10% FBS. OV90 (CRL-11732; ATCC) was cultured in medium containing 1:1 MCDB 105 (Sigma) and M199 (Sigma) supplemented with 10% FBS at 37 ° C. All the cells were cultured at in a humidified incubator with 5% CO2 atmosphere. Cisplatin resistant cell lines, including SKOV3 CR, IGROV1 CR and OV90 CR, were generated using an approach similar to that reported in Zhou et al., (2018) Oncogene 37, 3981-3997, the disclosure of which is incorporated herein in its entirety.
Cell viability assay. Cells were seeded at 3,000 cells/well in 96-well plates were treated with drugs, followed by incubation for 48 hours, after which cell viability was detected using Sulforhodamine B (SRB) assay (64). Absorbance at 510 nm was detected using a SpectraMax Reader (Molecular Devices) and analyzed with SoftMax Analysis Software (Molecular Devices). Combinational index (CI) values were calculated using CompuSyn software.

JAK2 = assay: Cell-free kinase assay with JAK2 purified from treated cells, recombinant STAT3 substrate; assay type: biochemical; conditions: JAK2 purified from IGROV1 cells treated with inhibitor
Protocol: Phosphorylation of STAT3 at tyrosine 705 (Y705) by JAK2 is one of the most important and well established cytoplasmic functions of JAK2. To determine whether accumulation of JAK2 in nucleus by depleting SENP1 affected JAK2 cytoplasmic activity, phosphorylated STAT3 (pSTAT3 (Y705)) levels was evaluated in SENP1 depleted IGROV1 cells.
To this end, cell-free kinase assays were performed using JAK2 purified from cells treated with siSENP1 or UAMMC9.

SENP1 [3] = assay: SENP1 IHC in IGROV1 xenograft tumors of carboplatin-treated mice; assay type: in vivo, immunodeficient nude mice; conditions: carboplatin 20 mg/kg or 60 mg/kg
Protocol: as §1
Immunohistochemistry. Immunohistochemical (IHC) staining and scoring were performed similar to that previously described n Zhou et al., (2018) Oncogene 37, 3981-3997, the disclosure of which is incorporated herein in its entirety. The quantification of immunohistochemical staining was scored blindly at least by two independent observers.

## C[C@@H]1CC[C@]2(C(=O)O)CC[C@]3(C)C(=CC[C@@H]4[C@@]5(C)CC[C@H](O)C(C)(C)[C@@H]5CC[C@]43C)[C@@H]2[C@]1(C)O [pomolic acid]
SKOV3 CR cells
  synergistic effects with cisplatin (combination index): synergistic effects
SENP1 [1]
  inhibited SENP1 activity in vitro: inhibited

## N.N.[Cl][Pt][Cl] [Cisplatin, cisplatin]
SENP1 [2]
  JAK2 SUMOylation: decreased
  SENP1 protein level: increased
SKOV3 CR cells; cisplatin alone or with 150 nM UAMMC, read-out: Cisplatin IC4 with 150 nM of UAMMCs on SKOV3 CR cells, IC50
  IC50: 12.4 µM
IGROV1 CR cells; cisplatin alone or with 150 nM UAMMC, read-out: Cisplatin IC50 with 150 nM of UAMMCs on IGROV1 CR cells
  IC50: 14.2 µM

## C[C@H]1[C@H](C)CC[C@]2(C(=O)O)CC[C@]3(C)C(=CC[C@@H]4[C@@]5(C)C[C@@H](O)[C@H](O)C(C)(C)[C@@H]5CC[C@]43C)[C@H]12 [corosolicin acid]
SKOV3 CR cells
  synergistic effects with cisplatin (combination index): synergistic effects

## C[C@@H]1CC[C@]2(C(=O)O)CC[C@]3(C)C(=CC[C@@H]4[C@@]5(C)C[C@@H](O)[C@H](O)C(C)(C)[C@@H]5CC[C@]43C)[C@@H]2[C@]1(C)O [tormentic acid]
SKOV3 CR cells
  synergistic effects with cisplatin (combination index): synergistic effects
SENP1 [1]
  inhibited SENP1 activity in vitro: inhibited

## C[C@@H]1CC[C@]2(C(=O)OCCNC(=O)OC(C)(C)C)CC[C@]3(C)C(=CCC4[C@@]5(C)CC[C@H](O)C(C)(C)C5CC[C@]43C)C2[C@H]1C (stereo partly drawn) [UAMMC3]
IGROV1 CR cells
  toxicity (cell viability): higher toxicity

## Cc1cnc(Nc2ccc(OCCN3CCCC3)cc2)nc1Nc1cccc(S(=O)(=O)NC(C)(C)C)c1 [TG101348]
JAK2
  phosphorylation of recombinant substrate STAT3 proteins by purified JAK2: decreased phosphorylation

## C[C@@H]1CC[C@]2(C(=O)OCC(=O)NCCO)CC[C@]3(C)C(=CCC4[C@@]5(C)CC[C@H](O)C(C)(C)C5CC[C@]43C)C2[C@H]1C (stereo partly drawn) [UAMMC5]
IGROV1 CR cells
  toxicity (cell viability): higher toxicity

## CC1CCC2(C(=O)NCC(=O)N(C)CCO)CCC3(C)C(=CCC4C5(C)CCC(O)C(C)(C)C5CCC43C)C2C1C (stereo not drawn) [UAMMC9]
IGROV1 CR cells; 150 nM UAMMC9, IGROVI CR cells
  decrease of the IC50 of cisplatin: 4.19 fold

## CC1(C)CC[C@]2(C(=O)O)[C@H](O)C[C@]3(C)C(=CC[C@@H]4[C@@]5(C)CC[C@H](O)C(C)(C)[C@@H]5CC[C@]43C)[C@H]2C1 [echinocyslic acid]
SKOV3 CR cells
  synergistic effects with cisplatin (combination index): synergistic effects

## N.N.O=C([O-])C1(C(=O)[O-])CCC1.[Pt+2] [Carboplatin, carboplatin]
SENP1 [3]
  SENP1 expression in ovarian tumors (IHC): significant increase
